# Patent US20230250066A1, “HERBICIDAL CINNOLINE DERIVATIVES” (SYNGENTA CROP PROTECTION AG, priority 2020, published 2023)
# Assays:
# Type in all cases: in vivo
# Zea mays (ZEAMX) [1] = test: Pre-emergence herbicidal test; conditions: 1000 g/ha, evaluated after 13 days
# Setaria faberi (SETFA) [2] = test: Pre-emergence herbicidal test; conditions: 1000 g/ha, evaluated after 13 days
# [3] = system: Echinochloa crus-galli (ECHCG); test: Pre-emergence herbicidal test; conditions: 1000 g/ha, evaluated after 13 days
# [4] = system: Amaranthus retoflexus (AMARE); test: Pre-emergence herbicidal test; conditions: 1000 g/ha, evaluated after 13 days
# [5] = system: Abutilon theophrasti (ABUTH); test: Pre-emergence herbicidal test; conditions: 1000 g/ha, evaluated after 13 days
# [6] = system: Ipomoea hederacea (IPOHE); test: Pre-emergence herbicidal test; conditions: 1000 g/ha, evaluated after 13 days
# [7] = system: Echinochloa crus-galli (ECHCG); test: Post-emergence herbicidal test; conditions: 1000 g/ha unless otherwise stated, evaluated after 13 days
# In short: (§1)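 Spray treatment, 1000 g/ha unless noted; vehicle acetone/water (50:50), 0.5% Tween 20. Glasshouse 24/16° C., 14 h light, 65% humidity. Percent injury rated at 13 d, banded 0–5.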
# Setaria faberi (SETFA) [8] = test: Post-emergence herbicidal test; conditions: 1000 g/ha unless otherwise stated, evaluated after 13 days
# In short: as §1
# [9] = system: Ipomoea hederacea (IPOHE); test: Post-emergence herbicidal test; conditions: 1000 g/ha unless otherwise stated, evaluated after 13 days
# In short: as §1
# [10] = system: Amaranthus retoflexus (AMARE); test: Post-emergence herbicidal test; conditions: 1000 g/ha unless otherwise stated, evaluated after 13 days
# In short: as §1
# Zea mays (ZEAMX) [11] = test: Post-emergence herbicidal test; conditions: 1000 g/ha unless otherwise stated, evaluated after 13 days
# In short: as §1
# [12] = system: Abutilon theophrasti (ABUTH); test: Post-emergence herbicidal test; conditions: 1000 g/ha unless otherwise stated, evaluated after 13 days
# In short: as §1
compound,measurement,setting,value
"CCOC(=O)c1nn(-c2ccc(OC(F)(F)F)cc2)c2cc(OC)cc(SC)c2c1=O [Compound P57, ethyl 7-methoxy-5-methylsulfanyl-4-oxo-1-[4-(trifluoromethoxy)phenyl]cinnoline-3-carboxylate]","percentage damage caused to the plant, five-point scale, ZEAMX",Zea mays (ZEAMX) [1],0 (0=0%)
same,"percentage damage caused to the plant, five-point scale, SETFA",Setaria faberi (SETFA) [2],0 (0=0%)
same,"percentage damage caused to the plant, five-point scale, ECHCG",[3],0 (0=0%)
same,"percentage damage caused to the plant, five-point scale, AMARE",[4],0 (0=0%)
same,"percentage damage caused to the plant, five-point scale, ABUTH",[5],0 (0=0%)
same,"percentage damage caused to the plant, five-point scale, IPOHE",[6],0 (0=0%)
same,"percentage damage caused to the plant, ECHCG (five-point scale)",[7],1 (1=10-20%)
same,"percentage damage caused to the plant, SETFA (five-point scale)",Setaria faberi (SETFA) [8],1 (1=10-20%)
same,"percentage damage caused to the plant, IPOHE (five-point scale)",[9],0 (0=0%)
same,"percentage damage caused to the plant, AMARE (five-point scale)",[10],0 (0=0%)
same,"percentage damage caused to the plant, ZEAMX (five-point scale)",Zea mays (ZEAMX) [11],0 (0=0%)
same,"percentage damage caused to the plant, ABUTH (five-point scale)",[12],0 (0=0%)
"CCOC(=O)c1nn(-c2ccc(OC(F)(F)F)cc2)c2cccc(S(=O)(=O)CC)c2c1=O [Compound P22, ethyl 5-ethylsulfonyl-4-oxo-1-[4-(trifluoromethoxy)phenyl]cinnoline-3-carboxylate]","percentage damage caused to the plant, five-point scale, ZEAMX",Zea mays (ZEAMX) [1],0 (0=0%)
same,"percentage damage caused to the plant, five-point scale, SETFA",Setaria faberi (SETFA) [2],0 (0=0%)
same,"percentage damage caused to the plant, five-point scale, ECHCG",[3],0 (0=0%)
same,"percentage damage caused to the plant, five-point scale, AMARE",[4],0 (0=0%)
same,"percentage damage caused to the plant, five-point scale, ABUTH",[5],0 (0=0%)
same,"percentage damage caused to the plant, five-point scale, IPOHE",[6],0 (0=0%)
same,"percentage damage caused to the plant, ECHCG (five-point scale)",[7],1 (1=10-20%)
same,"percentage damage caused to the plant, SETFA (five-point scale)",Setaria faberi (SETFA) [8],1 (1=10-20%)
same,"percentage damage caused to the plant, IPOHE (five-point scale)",[9],1 (1=10-20%)
same,"percentage damage caused to the plant, AMARE (five-point scale)",[10],1 (1=10-20%)
same,"percentage damage caused to the plant, ZEAMX (five-point scale)",Zea mays (ZEAMX) [11],0 (0=0%)
same,"percentage damage caused to the plant, ABUTH (five-point scale)",[12],1 (1=10-20%)
"CS(=O)(=O)c1cccc2c1c(=O)c(C(=O)OCC1CC1)nn2-c1ccc(OC(F)(F)F)cc1 [Compound P63, cyclopropylmethyl 5-methylsulfonyl-4-oxo-1-[4-(trifluoromethoxy)phenyl]cinnoline-3-carboxylate]","percentage damage caused to the plant, five-point scale, ZEAMX",Zea mays (ZEAMX) [1],0 (0=0%)
same,"percentage damage caused to the plant, five-point scale, SETFA",Setaria faberi (SETFA) [2],5 (5=81-100%)
same,"percentage damage caused to the plant, five-point scale, ECHCG",[3],3 (3=41-60%)
same,"percentage damage caused to the plant, five-point scale, AMARE",[4],0 (0=0%)
same,"percentage damage caused to the plant, five-point scale, ABUTH",[5],0 (0=0%)
same,"percentage damage caused to the plant, five-point scale, IPOHE",[6],0 (0=0%)
same,"percentage damage caused to the plant, ECHCG (five-point scale)",[7],3 (3=41-60%)
same,"percentage damage caused to the plant, SETFA (five-point scale)",Setaria faberi (SETFA) [8],4 (4=61-80%)
same,"percentage damage caused to the plant, IPOHE (five-point scale)",[9],0 (0=0%)
same,"percentage damage caused to the plant, AMARE (five-point scale)",[10],0 (0=0%)
same,"percentage damage caused to the plant, ZEAMX (five-point scale)",Zea mays (ZEAMX) [11],0 (0=0%)
same,"percentage damage caused to the plant, ABUTH (five-point scale)",[12],0 (0=0%)
"CC(C)(C)COC(=O)c1nn(-c2ccc(OC(F)(F)F)cc2)c2cccc(S(C)(=O)=O)c2c1=O [Compound P68, 2,2-dimethylpropyl 5-methylsulfonyl-4-oxo-1-[4-(trifluoromethoxy)phenyl]cinnoline-3-carboxylate]","percentage damage caused to the plant, five-point scale, ZEAMX",Zea mays (ZEAMX) [1],0 (0=0%)
same,"percentage damage caused to the plant, five-point scale, SETFA",Setaria faberi (SETFA) [2],4 (4=61-80%)
same,"percentage damage caused to the plant, five-point scale, ECHCG",[3],4 (4=61-80%)
same,"percentage damage caused to the plant, five-point scale, AMARE",[4],0 (0=0%)
same,"percentage damage caused to the plant, five-point scale, ABUTH",[5],0 (0=0%)
same,"percentage damage caused to the plant, five-point scale, IPOHE",[6],0 (0=0%)
same,"percentage damage caused to the plant, ECHCG (five-point scale)",[7],3 (3=41-60%)
same,"percentage damage caused to the plant, SETFA (five-point scale)",Setaria faberi (SETFA) [8],3 (3=41-60%)
same,"percentage damage caused to the plant, IPOHE (five-point scale)",[9],0 (0=0%)
same,"percentage damage caused to the plant, AMARE (five-point scale)",[10],0 (0=0%)
same,"percentage damage caused to the plant, ZEAMX (five-point scale)",Zea mays (ZEAMX) [11],1 (1=10-20%)
same,"percentage damage caused to the plant, ABUTH (five-point scale)",[12],0 (0=0%)
"CCOC(=O)c1nn(-c2ccc(OC(F)(F)F)cc2)c2cc(C)cc(S(C)(=O)=O)c2c1=O [Compound P9, ethyl 7-methyl-5-methylsulfonyl-4-oxo-1-[4-(trifluoromethoxy)phenyl]cinnoline-3-carboxylate]","percentage damage caused to the plant, five-point scale, ZEAMX",Zea mays (ZEAMX) [1],1 (1=10-20%)
same,"percentage damage caused to the plant, five-point scale, SETFA",Setaria faberi (SETFA) [2],4 (4=61-80%)
same,"percentage damage caused to the plant, five-point scale, ECHCG",[3],4 (4=61-80%)
same,"percentage damage caused to the plant, five-point scale, AMARE",[4],1 (1=10-20%)
same,"percentage damage caused to the plant, five-point scale, ABUTH",[5],1 (1=10-20%)
same,"percentage damage caused to the plant, five-point scale, IPOHE",[6],1 (1=10-20%)
same,"percentage damage caused to the plant, ECHCG (five-point scale)",[7],4 (4=61-80%)
same,"percentage damage caused to the plant, SETFA (five-point scale)",Setaria faberi (SETFA) [8],3 (3=41-60%)
same,"percentage damage caused to the plant, IPOHE (five-point scale)",[9],1 (1=10-20%)
same,"percentage damage caused to the plant, AMARE (five-point scale)",[10],1 (1=10-20%)
same,"percentage damage caused to the plant, ZEAMX (five-point scale)",Zea mays (ZEAMX) [11],1 (1=10-20%)
same,"percentage damage caused to the plant, ABUTH (five-point scale)",[12],1 (1=10-20%)
